Patent US20250154193A1, “STEROID COMPOUND, AND PREPARATION METHOD THEREFOR AND APPLICATION THEREOF” (CHOLESGEN (SHANGHAI) CO., LTD., priority 2022, published 2025)

Assays:
[1] = tested on: Ldlr−/− mice; assay: Sudan IV staining of atherosclerotic plaques of the aortic tree; format: in vivo; conditions: AMLN diet, intragastrically once a day, 8 weeks, vs control group
Source text: After the administration experiment in mice, the aorta was isolated and fixed in 4% PFA. Perivascular adipose tissues were removed with ophthalmic forceps under a stereo microscope, stained with Sudan IV, and atherosclerotic plaques were washed in 70% ethanol. After staining, the aortic tree was imaged using a ZEISS Axio Zoom.V16 stereo microscope. Atherosclerotic lesions were quantified using ImageJ software.
AMLN-fed Ldlr^−/− mice also served as a common model for atherosclerosis, allowing simultaneous study of both fatty liver and atherosclerosis. Male Ldlr^−/− mice at 8 weeks of age were fed with AMLN diet and intragastrically administered once a day for a total of 8 weeks. After the mice were euthanized, the aorta was isolated and fixed in 4% paraformaldehyde. Perivascular adipose tissues were removed under a stereo microscope, stained with Sudan IV, and rinsed with 70% ethanol. The aortic tree was imaged using a stereo microscope (Axio Zoom.V16, ZEISS, Germany). Atherosclerotic plaques were quantified using ImageJ software.

[2] = tested on: liver organoids; assay: Nile Red and αSMA immunofluorescence staining of fatty liver organoids; format: cell-based, mice; conditions: mouse fatty liver organoids, 1 and 3 μM, 72 hours
Procedure: C57BL/6N mice were fed with fatty liver-inducing diet (TrophicDiet, TP2630052A, containing 10.2% kcal protein, 37.3% kcal carbohydrate, and 52.6% kcal fat) and fructose-containing drinking water (23.1 g of fructose and 18.9 g of dextrose were dissolved in 1 L of water, then filtered and sterilized) for a total of 16 weeks starting at 12 weeks of age to generate a fatty liver model. To generate fatty liver organoids, liver tissues from mice with fatty liver were minced and digested in digestion buffer at 37° C. for 30 to 60 minutes. The digestion buffer included DMEM/F-12 (Cytiva, SH30023.01), 2.5 mg/mL collagenase D (Roche, COLLD-RO), and 0.1 mg/mL DNaseI (Sigma-Aldrich, DN25). Isolated single hepatocytes were filtered through a 70 μm filter membrane and washed once. Cells were collected by centrifugation, and resuspended in a mixture of culture medium and basement membrane extract (BME) (R&D Systems, 3533-010-02) at a ratio of 1:3. […]
In FIGS. 35 and 36, data are represented as mean±standard deviation. P values were calculated using one-way ANOVA; ns indicates no statistical difference; * indicates P<0.05; ** indicates P<0.01; *** indicates P<0.001. In FIGS. 47 and 53, quantitative analysis was performed using ImageJ software. […] P values were calculated using one-way ANOVA; * indicates P<0.05; ** indicates P<0.01; *** indicates P<0.001.

## C[C@H](CCCC(C)(C)O)[C@H]1CC[C@@]2(C)C3=C(CC[C@]12C)[C@@]1(C)CC[C@H](O)C(C)(C)[C@@H]1CC3 [compound 68, (1R,3aR,5aR,7S,9aS,11aR)-1-[(2R)-6-hydroxy-6-methylheptan-2-yl]-3a,6,6,9a,11a-pentamethyl-2,3,3a,4,5,5a,6,7,8,9,9a,10,11,11a-tetradecahydro-1H-cyclopenta[1,2-a]phenanthren-7-ol]
[1]
  formation and quantity of atherosclerotic plaques (Sudan IV staining of aortic tree): significantly reduced
[2]
  expression of fibrosis marker protein αSMA (immunofluorescence staining): decreasing
  lipid accumulation in organoids (Nile Red staining): reduced
